Reference: PubChem BioAssay (NCI)
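Briefly, cells in 96-well plates were exposed to five compound concentrations for 48 h, and endpoints were estimated by linear interpolation. The concentration for full growth arrest is given as TGI.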

Assays:
Assay in all cases: NCI tumour cell line growth inhibition, 48 h
DU-145 prostate = tested on: DU-145 prostate
TK-10 renal = tested on: TK-10 renal
HT29 colon = tested on: HT29 colon
SK-MEL-2 melanoma = tested on: SK-MEL-2 melanoma
SK-MEL-5 melanoma = tested on: SK-MEL-5 melanoma
PC-3 prostate = tested on: PC-3 prostate
SNB-75 CNS = tested on: SNB-75 CNS
HOP-62 NSCLC = tested on: HOP-62 NSCLC
OVCAR-4 ovarian = tested on: OVCAR-4 ovarian
MOLT-4 leukemia = tested on: MOLT-4 leukemia
NCI-H226 lung = tested on: NCI-H226 lung
KM12 colon = tested on: KM12 colon
HCC-2998 colon = tested on: HCC-2998 colon
HS 578T breast = tested on: HS 578T breast
BT-549 breast = tested on: BT-549 breast
NCI-H23 lung = tested on: NCI-H23 lung
SW-620 colon = tested on: SW-620 colon
NCI/ADR-RES ovarian = tested on: NCI/ADR-RES ovarian
OVCAR-8 ovarian = tested on: OVCAR-8 ovarian
ACHN renal = tested on: ACHN renal
UO-31 renal = tested on: UO-31 renal
SK-MEL-28 melanoma = tested on: SK-MEL-28 melanoma
NCI-H522 lung = tested on: NCI-H522 lung
MDA-MB-231 breast = tested on: MDA-MB-231 breast
SN12C renal = tested on: SN12C renal
MCF7 breast = tested on: MCF7 breast
A498 renal = tested on: A498 renal
K-562 leukemia = tested on: K-562 leukemia
MDA-MB-435 = tested on: MDA-MB-435
OVCAR-5 ovarian = tested on: OVCAR-5 ovarian
IGROV1 ovarian = tested on: IGROV1 ovarian
SNB-19 CNS = tested on: SNB-19 CNS
UACC-257 melanoma = tested on: UACC-257 melanoma
MDA-N = tested on: MDA-N
HCT-15 colon = tested on: HCT-15 colon
UACC-62 melanoma = tested on: UACC-62 melanoma
NCI-H460 lung = tested on: NCI-H460 lung
786-0 renal = tested on: 786-0 renal
SF-268 CNS = tested on: SF-268 CNS
RXF 393 renal = tested on: RXF 393 renal
MALME-3M melanoma = tested on: MALME-3M melanoma
CAKI-1 renal = tested on: CAKI-1 renal
HL-60(TB) leukemia = tested on: HL-60(TB) leukemia
SF-295 CNS = tested on: SF-295 CNS
U251 CNS = tested on: U251 CNS
OVCAR-3 ovarian = tested on: OVCAR-3 ovarian
HCT-116 colon = tested on: HCT-116 colon
LOX IMVI melanoma = tested on: LOX IMVI melanoma
EKVX NSCLC = tested on: EKVX NSCLC
COLO 205 colon = tested on: COLO 205 colon
HOP-92 NSCLC = tested on: HOP-92 NSCLC
SF-539 CNS = tested on: SF-539 CNS
M14 melanoma = tested on: M14 melanoma
A549 NSCLC = tested on: A549 NSCLC
RPMI-8226 leukemia = tested on: RPMI-8226 leukemia
CCRF-CEM leukemia = tested on: CCRF-CEM leukemia
T-47D breast = tested on: T-47D breast
SK-OV-3 ovarian = tested on: SK-OV-3 ovarian

Measured: TGI

NC1=NC(=O)[C@H](Cc2c[nH]c3ccccc23)N1C(=O)OCc1ccccc1
not listed: HOP-92 NSCLC | SF-539 CNS | M14 melanoma | A549 NSCLC | RPMI-8226 leukemia | CCRF-CEM leukemia | T-47D breast | SK-OV-3 ovarian
> 100 µM: all other assays above

Cc1ccc(C(=O)N/N=C(\N=Nc2cccc([N+](=O)[O-])c2)c2ccc(N(C)C)cc2)cc1
85.5 µM: DU-145 prostate
not listed: SNB-75 CNS | HOP-62 NSCLC | ACHN renal | A498 renal | UACC-62 melanoma | RXF 393 renal | MALME-3M melanoma | T-47D breast | SK-OV-3 ovarian
> 100 µM: all other assays above

C[C@H]1[C@H](N2CCCC2)O[Si](C(C)(C)C)(C(C)(C)C)[C@@H]1C
48.5 µM: HL-60(TB) leukemia
4.7 µM: HOP-92 NSCLC
not listed: DU-145 prostate | HS 578T breast | NCI-H460 lung | SF-268 CNS | RXF 393 renal
> 100 µM: all other assays above
